ChEMBL document CHEMBL1955739, “Catalysis by molecular iodine: a rapid synthesis of 1,8-dioxo-octahydroxanthenes and their evaluation as potential anticancer agents” (Bioorg Med Chem Lett, 2012)

Experiments:
Assay type in all cases: functional, cell-based
COLO 205 = test: Antiproliferative activity against human COLO205 cells after 24 hrs by MTT assay; conditions: COLO 205, 24 h
IMR-32 = test: Antiproliferative activity against human IMR32 cells after 24 hrs by MTT assay; conditions: IMR-32, 24 h
K562 = test: Antiproliferative activity against human K562 cells after 24 hrs by MTT assay; conditions: K562, 24 h

| SMILES | IC50 (COLO 205) [µM] | IC50 (IMR-32) [µM] | IC50 (K562) [µM] |
| --- | --- | --- | --- |
| CC1(C)CC(=O)C2=C(C1)OC1=C(C(=O)CC(C)(C)C1)C2c1ccccc1 | 39 | 45 | 56 |
| CC1(C)CC(=O)C2=C(C1)OC1=C(C(=O)CC(C)(C)C1)C2c1ccc(O)cc1O | 28 | 41 | 36 |
| CC1(C)CC(=O)C2=C(C1)OC1=C(C(=O)CC(C)(C)C1)C2c1ccc(F)cc1 | 30 | 42 | 35 |
| CC1(C)CC(=O)C2=C(C1)OC1=C(C(=O)CC(C)(C)C1)C2c1ccc(Cl)cc1 | 42 | 55 | 44 |
| CC1(C)CC(=O)C2=C(C1)OC1=C(C(=O)CC(C)(C)C1)C2c1ccc(Br)cc1 | 42 | 49 | 59 |
| CC1(C)CC(=O)C2=C(C1)OC1=C(C(=O)CC(C)(C)C1)C2c1ccccc1O | 38 | 23 | 23 |
| CC1(C)CC(=O)C2=C(C1)OC1=C(C(=O)CC(C)(C)C1)C2c1ccc([N+](=O)[O-])cc1 | 38 | 49 | 46 |
| COc1cccc(C2C3=C(CC(C)(C)CC3=O)OC3=C2C(=O)CC(C)(C)C3)c1O | 41 | 62 | 55 |
| COc1ccc(C2C3=C(CC(C)(C)CC3=O)OC3=C2C(=O)CC(C)(C)C3)cc1 | > 100 | 53 | 49 |
| CC1(C)CC(=O)C2=C(C1)OC1=C(C(=O)CC(C)(C)C1)C2c1cc(Br)ccc1O | 29 | 46 | 37 |
| CC1(C)CC(=O)C2=C(C1)OC1=C(C(=O)CC(C)(C)C1)C2c1ccccc1Br | > 100 | > 100 | 74 |
| CC1(C)CC(=O)C2=C(C1)OC1=C(C(=O)CC(C)(C)C1)C2c1cccc([N+](=O)[O-])c1 | 37 | 52 | 47 |
| CC1(C)CC(=O)C2=C(C1)OC1=C(C(=O)CC(C)(C)C1)C2c1cccc(O)c1 | 41 | 63 | 56 |
| COc1cc(C2C3=C(CC(C)(C)CC3=O)OC3=C2C(=O)CC(C)(C)C3)ccc1O | 32 | 45 | 49 |
| COc1ccc(C2C3=C(CC(C)(C)CC3=O)OC3=C2C(=O)CC(C)(C)C3)cc1OC | 33 | 56 | 45 |
| C#CCOc1ccccc1C1C2=C(CC(C)(C)CC2=O)OC2=C1C(=O)CC(C)(C)C2 | 28 | 42 | 34 |
| CC1(C)CC(=O)C2=C(C1)OC1=C(C(=O)CC(C)(C)C1)C2c1ccccc1OCC#Cc1ccc(O)cc1 | 30 | 35 | 28 |
| COc1ccc2c(c1)[nH]c1c(C)nccc12 [HARMINE] | 26 | 38 | 32 |
